The target in this assay is human orexin 2 receptor (Homo sapiens (Human), UniProt O43614). Kind of assay: Human orexin 2 receptor radioligand binding ([3H]EMPA competition, HEK293 cells). Particulars: HEK293 cells expressing human orexin-2 receptor, read-out: OR 2 Ki.

Among the data in patent publication US9586962B2, “Disubstituted octahydropyrrolo [3,4-C] pyrroles as orexin receptor modulators” (Janssen Pharmaceutica NV, priority 2011, dated 2017) are Ki values, retold here.

By Ki is commonly meant a measure of affinity in units of concentration, obtained from inhibition or displacement.

human orexin 2 receptor, sequence (O43614 whole entry): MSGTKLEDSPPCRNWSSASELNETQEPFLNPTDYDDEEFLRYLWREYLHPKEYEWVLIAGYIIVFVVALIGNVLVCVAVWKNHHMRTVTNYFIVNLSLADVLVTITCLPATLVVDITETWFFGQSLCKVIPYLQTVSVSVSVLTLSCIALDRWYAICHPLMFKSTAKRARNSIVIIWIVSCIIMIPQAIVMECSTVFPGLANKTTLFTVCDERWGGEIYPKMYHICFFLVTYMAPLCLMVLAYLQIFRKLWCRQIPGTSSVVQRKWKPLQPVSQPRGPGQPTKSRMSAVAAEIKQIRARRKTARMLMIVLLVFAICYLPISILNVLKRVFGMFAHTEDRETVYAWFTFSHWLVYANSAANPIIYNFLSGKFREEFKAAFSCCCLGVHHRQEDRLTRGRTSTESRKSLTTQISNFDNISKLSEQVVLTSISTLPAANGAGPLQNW

For the compound `Cc1ccc(-c2ncccn2)c(C(=O)N2CC3CN(c4cc(N(C)C)nc(C)n4)CC3C2)n1` (stereo not shown) [Example 428, N,N,2-Trimethyl-6-{5-[(6-methyl-3-pyrimidin-2-ylpyridin-2-yl)carbonyl]hexahydropyrrolo[3,4-c]pyrrol-2(1H)-yl}pyrimidin-4-amine], the Ki worked out at 244 nM.

On to `Cc1ccc(-c2ncc(C)o2)c(C(=O)N2CC3CN(c4cc(N(C)C)nc(C)n4)CC3C2)n1` (stereo not shown) [Example 429, N,N,2-Trimethyl-6-[5-{[6-methyl-3-(5-methyl-1,3-oxazol-2-yl)pyridin-2-yl]carbonyl}hexahydropyrrolo[3,4-c]pyrrol-2(1H)-yl]pyrimidin-4-amine], for which the Ki was 764 nM.

In the case of `CCCOc1ccc(C)cc1C(=O)N1CC2CN(c3cc(N(C)C)nc(C)n3)CC2C1` (stereo not shown) [Example 430, N,N,2-Trimethyl-6-{5-[(5-methyl-2-propoxyphenyl)carbonyl]hexahydropyrrolo[3,4-c]pyrrol-2(1H)-yl}pyrimidin-4-amine], the Ki was determined as 270 nM.

`[2H]c1c(C([2H])([2H])[2H])nc(N2CC3CN(C(=O)c4cccc(F)c4-c4ncccn4)CC3C2)nc1C([2H])([2H])[2H]` (stereo not shown) [Example 431, 2-{4,6-Bis[(^2H3)methyl](^2H)pyrimidin-2-yl}-5-[(3-fluoro-2-pyrimidin-2-ylphenyl)carbonyl]octahydropyrrolo[3,4-c]pyrrole]: the Ki was 18 nM.

`Cc1cc(C)nc(N2CC3CN(C(=O)c4cccc(F)c4-c4nnc[nH]4)CC3C2)n1` (stereo not shown) [Example 432, 2-(4,6-Dimethylpyrimidin-2-yl)-5-{[3-fluoro-2-(1H-1,2,4-triazol-5-yl)phenyl]carbonyl}octahydropyrrolo[3,4-c]pyrrole]: the Ki was determined as 23 nM.

With `Cc1cc(C)nc(N2CC3CN(C(=O)c4ccccc4-c4cn(Cc5ccccc5)nn4)CC3C2)n1` (stereo not shown) [Example 434, 2-{[2-(1-Benzyl-1H-1,2,3-triazol-4-yl)phenyl]carbonyl}-5-(4,6-dimethylpyrimidin-2-yl)octahydropyrrolo[3,4-c]pyrrole], the Ki is 394 nM.

Regarding `COc1ccc(C(=O)N2CC3CN(c4nc(C)cc(CO)n4)CC3C2)c(-n2nccn2)c1` (stereo not shown) [Example 435, {2-[5-{[4-Methoxy-2-(2H-1,2,3-triazol-2-yl)phenyl]carbonyl}hexahydropyrrolo[3,4-c]pyrrol-2(1H)-yl]-6-methylpyrimidin-4-yl}methanol], the Ki amounted to 24 nM.

Turning to `Cc1cc(CO)nc(N2CC3CN(C(=O)c4cccc(F)c4-c4nc(C)no4)CC3C2)n1` (stereo not shown) [Example 436, {2-[5-{[3-Fluoro-2-(3-methyl-1,2,4-oxadiazol-5-yl)phenyl]carbonyl}hexahydropyrrolo[3,4-c]pyrrol-2(1H)-yl]-6-methylpyrimidin-4-yl}methanol], the Ki turned out to be 21 nM.

Consider `Cc1cc(C)nc(N2CC3CN(C(=O)c4c(F)cccc4-c4nnc[nH]4)CC3C2)n1` (stereo not shown) [Example 437, 2-(4,6-Dimethylpyrimidin-2-yl)-5-{[2-fluoro-6-(1H-1,2,4-triazol-5-yl)phenyl]carbonyl}octahydropyrrolo[3,4-c]pyrrole], for which the Ki was determined as 270 nM.

Turning to `Cc1cc(C)nc(N2CC3CN(C(=O)c4nc(C)ccc4-n4ccnn4)CC3C2)n1` (stereo not shown) [Example 439, 2-(4,6-Dimethylpyrimidin-2-yl)-5-{[6-methyl-3-(1H-1,2,3-triazol-1-yl)pyridin-2-yl]carbonyl}octahydropyrrolo[3,4-c]pyrrole], the Ki worked out at 10000 nM.

Regarding `Cc1nc(N2CC3CN(C(=O)c4ncc(Cl)cc4-n4nccn4)CC3C2)nc(C)c1C` (stereo not shown) [Example 442, 2-{[5-Chloro-3-(2H-1,2,3-triazol-2-yl)pyridin-2-yl]carbonyl}-5-(4,5,6-trimethylpyrimidin-2-yl)octahydropyrrolo[3,4-c]pyrrole], the Ki was determined as 26 nM.

Consider `COc1cnc(C(=O)N2CC3CN(c4nc(C)c(C)c(C)n4)CC3C2)c(-n2nccn2)c1` (stereo not shown) [Example 444, 2-{[5-Methoxy-3-(2H-1,2,3-triazol-2-yl)pyridin-2-yl]carbonyl}-5-(4,5,6-trimethylpyrimidin-2-yl)octahydropyrrolo[3,4-c]pyrrole], for which the Ki turned out to be 20 nM.

With `Cc1ccc(-c2ncccn2)c(C(=O)N2CC3CN(c4nc(C)c(C)c(C)n4)CC3C2)n1` (stereo not shown) [Example 445, 2-[(6-Methyl-3-pyrimidin-2-ylpyridin-2-yl)carbonyl]-5-(4,5,6-trimethylpyrimidin-2-yl)octahydropyrrolo[3,4-c]pyrrole], the Ki turned out to be 27 nM.

Take `Cc1cc(C)nc(N2CC3CN(C(=O)c4ccc(OC(F)F)cc4-n4nccn4)CC3C2)n1` (stereo not shown) [Example 446, 2-{[4-(Difluoromethoxy)-2-(2H-1,2,3-triazol-2-yl)phenyl]carbonyl}-5-(4,6-dimethylpyrimidin-2-yl)octahydropyrrolo[3,4-c]pyrrole]: the Ki was determined as 72 nM.

On to `CCOc1ncccc1C(=O)N1CC2CN(c3cnc4cc(F)c(F)cc4n3)CC2C1` (stereo not shown) [Example 447, 2-{5-[(2-Ethoxypyridin-3 yl)carbonyl]hexahydropyrrolo[3,4-c]pyrrol-2(1H)-yl}-6,7-difluoroquinoxaline], for which the Ki was found to be 580 nM.

Turning to `CCOc1ncccc1C(=O)N1CC2CN(c3ncc4cc(F)ccc4n3)CC2C1` (stereo not shown) [Example 448, 2-{5-[(2-Ethoxypyridin-3-yl)carbonyl]hexahydropyrrolo[3,4-c]pyrrol-2(1H)-yl}-6-fluoroquinazoline], the Ki came to 340 nM.

For the compound `O=C(c1cccc(F)c1I)N1CC2CN(c3cnc4cc(F)c(F)cc4n3)CC2C1` (stereo not shown) [Example 449, 6,7-Difluoro-2-{5-[(3-fluoro-2-iodophenyl)carbonyl]hexahydropyrrolo[3,4-c]pyrrol-2(1H)-yl}quinoxaline], the Ki stood at 160 nM.

Take `O=C(c1cccc(F)c1-c1ncccc1F)N1CC2CN(c3cnc4cc(F)c(F)cc4n3)CC2C1` (stereo not shown) [Example 450, 6,7-Difluoro-2-[5-{[3-fluoro-2-(3-fluoropyridin-2-yl)phenyl]carbonyl}hexahydropyrrolo[3,4-c]pyrrol-2(1H)-yl]quinoxaline]: the Ki was determined as 36 nM.

In the case of `O=C(c1cccc(F)c1-c1ncco1)N1CC2CN(c3cnc4cc(F)c(F)cc4n3)CC2C1` (stereo not shown) [Example 451, 6,7-Difluoro-2-[5-{[3-fluoro-2-(1,3-oxazol-2-yl)phenyl]carbonyl}hexahydropyrrolo[3,4-c]pyrrol-2(1H)-yl]quinoxaline], the Ki turned out to be 29 nM.

`O=C(c1cccc(F)c1-c1ccccn1)N1CC2CN(c3cnc4cc(F)c(F)cc4n3)CC2C1` (stereo not shown) [Example 452, 6,7-Difluoro-2-{5-[(3-fluoro-2-pyridin-2-ylphenyl)carbonyl]hexahydropyrrolo[3,4-c]pyrrol-2(1H)-yl}quinoxaline]: the Ki was 26 nM.

For `COc1cccnc1-c1c(F)cccc1C(=O)N1CC2CN(c3cnc4cc(F)c(F)cc4n3)CC2C1` (stereo not shown) [Example 453, 6,7-Difluoro-2-[5-{[3-fluoro-2-(3-methoxypyridin-2-yl)phenyl]carbonyl}hexahydropyrrolo[3,4-c]pyrrol-2(1H)-yl]quinoxaline], the Ki was found to be 47 nM.

For `O=C(c1cccc(F)c1-c1cncs1)N1CC2CN(c3cnc4cc(F)c(F)cc4n3)CC2C1` (stereo not shown) [Example 454, 6,7-Difluoro-2-[5-{[3-fluoro-2-(1,3-thiazol-5-yl)phenyl]carbonyl}hexahydropyrrolo[3,4-c]pyrrol-2(1H)-yl]quinoxaline], the Ki came to 72 nM.

On to `O=C(c1cccc(F)c1-c1cscn1)N1CC2CN(c3cnc4cc(F)c(F)cc4n3)CC2C1` (stereo not shown) [Example 455, 6,7-Difluoro-2-[5-{[3-fluoro-2-(1,3-thiazol-4-yl)phenyl]carbonyl}hexahydropyrrolo[3,4-c]pyrrol-2(1H)-yl]quinoxaline], for which the Ki was 32 nM.

As to `O=C(c1cccc(F)c1-c1[nH]ncc1F)N1CC2CN(c3cnc4cc(F)c(F)cc4n3)CC2C1` (stereo not shown) [Example 456, 6,7-Difluoro-2-[5-{[3-fluoro-2-(4-fluoro-1H-pyrazol-5-yl)phenyl]carbonyl}hexahydropyrrolo[3,4-c]pyrrol-2(1H)-yl]quinoxaline], the inhibitory constant (Ki) amounted to 31 nM.

In the case of `COc1ccc(C(=O)N2CC3CN(c4cnc5cc(F)c(F)cc5n4)CC3C2)c(-c2ncccn2)c1` (stereo not shown) [Example 459, 6,7-Difluoro-2-{5-[(4-methoxy-2-pyrimidin-2-ylphenyl)carbonyl]hexahydropyrrolo[3,4-c]pyrrol-2(1H)-yl}quinoxaline], the Ki came to 38 nM.

Consider `Cc1cccc(C(=O)N2CC3CN(c4cnc5cc(F)c(F)cc5n4)CC3C2)c1-n1nccn1` (stereo not shown) [Example 460, 6,7-Difluoro-2-[5-{[3-methyl-2-(2H-1,2,3-triazol-2-yl)phenyl]carbonyl}hexahydropyrrolo[3,4-c]pyrrol-2(1H)-yl]quinoxaline], for which the Ki was 109 nM.

`Cc1cc(C)nc(N2CC3CN(C(=O)c4cccc5c4OCC5)CC3C2)n1` (stereo not shown) [Example 463, 2-(2,3-Dihydro-1-benzofuran-7-ylcarbonyl)-5-(4,6-dimethylpyrimidin-2-yl)octahydropyrrolo[3,4-c]pyrrole]: the Ki was found to be 4000 nM.

Take `Cc1cc(C)nc(N2CC3CN(C(=O)c4c(C)nc5sccn45)CC3C2)n1` (stereo not shown) [Example 464, 5-{[5-(4,6-Dimethylpyrimidin-2-yl)hexahydropyrrolo[3,4-c]pyrrol-2(1H)-yl]carbonyl}-6-methylimidazo[2,1-b][1,3]thiazole]: the Ki turned out to be 3900 nM.

For `COc1cccc(-n2nccn2)c1C(=O)N1CC2CN(c3nc(C)cc(C)n3)CC2C1` (stereo not shown) [Example 465, 2-(4,6-Dimethylpyrimidin-2-yl)-5-{[2-methoxy-6-(2H-1,2,3-triazol-2-yl)phenyl]carbonyl}octahydropyrrolo[3,4-c]pyrrole], the Ki was determined as 33 nM.

On to `Cc1cc(C)nc(N2CC3CN(C(=O)c4c(F)cccc4-c4nccs4)CC3C2)n1` (stereo not shown) [Example 476, 2-(4,6-Dimethylpyrimidin-2-yl)-5-{[2-fluoro-6-(1,3-thiazol-2-yl)phenyl]carbonyl}octahydropyrrolo[3,4-c]pyrrole], for which the inhibition constant Ki was found to be 15 nM.

`Cc1cc(C)nc(N2CC3CN(C(=O)c4c(F)cccc4-c4ncc(C)s4)CC3C2)n1` (stereo not shown) [Example 477, 2-(4,6-Dimethylpyrimidin-2-yl)-5-{[2-fluoro-6-(5-methyl-1,3-thiazol-2-yl)phenyl]carbonyl}octahydropyrrolo[3,4-c]pyrrole]: the Ki amounted to 19 nM.
